Measurements taken from article PMC3428502 (Brain research, 2012).
“Also recorded” adds a separate entry of the source.

Legend:
BSA [1] = target: T1, BSA (Bos taurus, UniProt P02769); assay: Relative protein reactivity with BSA; settings: 100 μM, BSA 1 mg/mL, 4 h, 37°C, compared to DOPAL
PC6-3 cells [2] = assay: MTT assay of mitochondrial function; format: cell-based; settings: for change of mitochondrial function (MTT), in words: 5, 10, 25, 50 μM; for mitochondrial dysfunction: 50 μM
[3] = target: T2, tyrosine hydroxylase (TH) (Rattus norvegicus, UniProt P04177); assay: TH activity in whole dopaminergic PC6-3 cells; format: cell-based; settings: for TH inhibition in PC6-3 cells: 2 h; for inhibition at 20 µM: read-out: TH inhibition in PC6-3 cells
T2 sequence (P04177 whole entry): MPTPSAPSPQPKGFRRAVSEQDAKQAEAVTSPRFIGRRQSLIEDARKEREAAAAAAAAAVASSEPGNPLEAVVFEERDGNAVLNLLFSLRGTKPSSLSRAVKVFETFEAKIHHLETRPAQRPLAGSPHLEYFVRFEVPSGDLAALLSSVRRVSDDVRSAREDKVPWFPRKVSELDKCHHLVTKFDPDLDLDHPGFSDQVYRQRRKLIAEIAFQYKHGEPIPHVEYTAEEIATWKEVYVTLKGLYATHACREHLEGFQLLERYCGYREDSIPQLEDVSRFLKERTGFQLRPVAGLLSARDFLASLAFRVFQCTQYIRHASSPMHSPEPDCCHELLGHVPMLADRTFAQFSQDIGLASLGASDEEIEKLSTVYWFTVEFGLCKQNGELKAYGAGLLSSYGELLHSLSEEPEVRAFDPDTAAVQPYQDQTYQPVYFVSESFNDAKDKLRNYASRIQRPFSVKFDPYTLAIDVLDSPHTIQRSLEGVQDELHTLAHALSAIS

BSA [4] = target: T1, BSA; settings: compared to DOPAL; ref Rees et al., 2009; cited from earlier work
PC6-3 cells [5] = assay: Intracellular concentration in PC6-3 cells by HPLC; format: in vitro ADME, rat
[6] = target: T2, tyrosine hydroxylase (TH); settings: 1.0 μM; modified from previously published results; ref Mexas et al., 2011; cited from earlier work
PC6-3 cells [7] = assay: Flow cytometry with DHE for superoxide anion; format: cell-based, rat; settings: 10 μM, 1 h incubation, vs control cells
PC6-3 cells [8] = assay: Flow cytometry with DCF-DA for hydrogen peroxide; format: cell-based, rat; settings: 5 and 10 μM, 1 h, vs control cells
[9] = target: T2, tyrosine hydroxylase (TH); assay: TH activity in PC6-3 cell lysate; format: biochemical; settings: read-out: inhibition of L-DOPA production in cell lysate
[10] = 20 μM placed exogenously on PC6-3 cells

T1 sequence (P02769 25-607): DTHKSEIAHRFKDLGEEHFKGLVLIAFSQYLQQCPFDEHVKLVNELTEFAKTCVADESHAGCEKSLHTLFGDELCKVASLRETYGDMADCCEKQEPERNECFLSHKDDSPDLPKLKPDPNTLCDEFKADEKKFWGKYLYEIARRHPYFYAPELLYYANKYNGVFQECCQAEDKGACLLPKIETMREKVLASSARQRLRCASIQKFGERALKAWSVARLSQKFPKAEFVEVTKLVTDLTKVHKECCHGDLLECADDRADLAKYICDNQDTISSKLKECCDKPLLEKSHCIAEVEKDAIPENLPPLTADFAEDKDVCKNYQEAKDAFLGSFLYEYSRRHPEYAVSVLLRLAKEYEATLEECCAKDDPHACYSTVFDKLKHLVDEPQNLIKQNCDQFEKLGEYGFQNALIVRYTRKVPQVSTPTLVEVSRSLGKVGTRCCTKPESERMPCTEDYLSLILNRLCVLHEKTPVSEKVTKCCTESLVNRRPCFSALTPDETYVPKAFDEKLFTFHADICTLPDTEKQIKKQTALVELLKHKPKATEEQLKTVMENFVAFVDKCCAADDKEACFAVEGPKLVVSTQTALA

Row | SMILES | change of mitochondrial function (MTT), in words (PC6-3 cells [2]; 2 h, vs control cells) | times less protein reactivity than DOPAL (BSA [4]) | intracellular concentration (PC6-3 cells [5]; [10]) | inhibition at 20 µM [3] | inhibition at 20 µM [9] | mitochondrial dysfunction (PC6-3 cells [2]; 2 h, vs control cells) | other results
1 | N#CCc1ccc(O)c(O)c1 [DHPAN, 3,4-Dihydroxyphenylacetonitrile] | no significant loss of mitochondrial viability; also recorded: no changes to mitochondrial function; also recorded: no significant toxicity | – | – | – | – | – | Relative protein reactivity (NBT staining of BSA) (BSA [1]): no significant staining by NBT; TH inhibition in PC6-3 cells ([3]; 20 μM final concentration): no significant TH inhibition
2 | COc1ccc(CC=O)cc1OC [DMPAL, 3,4-Dimethoxyphenylacetaldehyde] | no significant loss of mitochondrial viability; also recorded: no changes to mitochondrial function; also recorded: no significant toxicity | 5 times | ~ 9 μM | ~40% | – | – | –
3 | O=CCc1ccc(O)c(O)c1 [DOPAL, 3,4-dihydroxyphenylacetaldehyde, reference compound] | – | – | – | – | – | – | TH inhibition in cell lysate [6]: ~95%; intracellular concentration (PC6-3 cells [5]; rat, 5 μM, pH 7.4): 4 to 5 µM; superoxide anion production (DHE) (PC6-3 cells [7]): significantly different from control cells; hydrogen peroxide production (DCF-DA) (PC6-3 cells [8]): significantly less hydrogen peroxide than controls cells; TH inhibition in PC6-3 cells ([3]; 5 μM placed exogenously, intracellular 4–5 μM): ~ 60%; decrease of DA concentration in PC6-3 cells ([3]; DOPAL-treated cells vs control cells, data not shown): ~ 40%
4 | O=CCC=O [MDA, Malondialdehyde, reference compound] | – | – | – | – | – | – | effect on TH activity ([3]; 5 μM, used to inhibit ALDH and AR, data not shown): does not inhibit or alter TH activity
5 | COc1cc(CC=O)ccc1O [MOPAL, 3-methoxy-4-hydroxyphenylacetaldehyde] | some concentration-dependent dysfunction | 5 times | – | ~50% | ~50% | ~ 25% | intracellular concentration (PC6-3 cells [5]; rat, 20 μM, pH 7.4): 9 to 12 µM
6 | O=CCc1ccccc1 [PAL, phenylacetaldehyde] | some concentration-dependent dysfunction | 10 times | 9 to 12 µM | ~50% | ~50% | ~ 25% | loss of mitochondrial viability (PC6-3 cells [2]; 10 μM, 2 h, vs control cells): ~ 15%; loss of mitochondrial viability (PC6-3 cells [2]; 25 μM, vs controls): ~ 15%
